Some test systems named below: 786-0 renal; CCRF-CEM leukemia; MALME-3M melanoma; MOLT-4 leukemia; OVCAR-4 ovarian; OVCAR-5 ovarian; OVCAR-8 ovarian; RXF 393 renal; SK-MEL-28 melanoma; SNB-75 CNS.
Common to all, as to assay: NCI tumour cell line growth inhibition, 48 h

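Where inhibition never reached the appropriate level, the endpoint shown equals the highest concentration tested. Otherwise, values were interpolated linearly from a five-concentration, 48-hour dose response in 96-well plates. The concentration for 50% growth inhibition is given as GI50. TGI denotes the concentration required for complete inhibition of growth.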

On to `C[C@]12CC[C@H]3[C@@H](C[C@@H]4SC(Nc5cccc(F)c5)=N[C@@]45CC(=O)CC[C@]35C)[C@@H]1CCC2=O`, for which the GI50 is 1.43 µM with 786-0 renal; 1.9 µM in the experiment on CCRF-CEM leukemia; 1.94 µM in the experiment with MALME-3M melanoma; 1.68 µM in the experiment on MOLT-4 leukemia; 2.71 µM in the experiment on OVCAR-4 ovarian; 2.73 µM with OVCAR-5 ovarian. The GI50 was 2.79 µM in the experiment on OVCAR-8 ovarian, 1.45 µM with RXF 393 renal, 1.52 µM in the experiment on SK-MEL-28 melanoma and 1.52 µM in the experiment with SNB-75 CNS. For the same compound, the TGI is 2.83 µM with 786-0 renal; more than 100 µM in the experiment on CCRF-CEM leukemia; 5.04 µM with MALME-3M melanoma; 28.3 µM in the experiment on MOLT-4 leukemia; more than 100 µM in the experiment on OVCAR-4 ovarian; 18 µM in the experiment with OVCAR-5 ovarian. Besides, the TGI is 7.98 µM in the experiment on OVCAR-8 ovarian, 3.25 µM in the experiment on RXF 393 renal, 4.27 µM in the experiment on SK-MEL-28 melanoma and 4.94 µM in the experiment on SNB-75 CNS.
On to `Nc1ccc(-c2ccc(-c3nc4ccccc4[nH]3)cc2)cc1`, for which the GI50 with 786-0 renal was 8.78 µM; in the experiment with CCRF-CEM leukemia, 2.77 µM; in the experiment with MALME-3M melanoma, 7.19 µM; in the experiment on MOLT-4 leukemia, 9.94 µM; in the experiment with OVCAR-4 ovarian it was 21.1 µM; in the experiment on OVCAR-5 ovarian, more than 75.9 µM. Moreover, the GI50 with OVCAR-8 ovarian was 14.1 µM; with RXF 393 renal it was 23.5 µM; in the experiment on SK-MEL-28 melanoma, 2.08 µM; with SNB-75 CNS, 27.8 µM. Moreover, the TGI in the experiment with 786-0 renal is 84.9 µM; in the experiment with CCRF-CEM leukemia it was more than 78.7 µM; in the experiment on MALME-3M melanoma, more than 52.7 µM; in the experiment on MOLT-4 leukemia, more than 58.2 µM; with OVCAR-4 ovarian, 79.9 µM; in the experiment with OVCAR-5 ovarian it was more than 100 µM. For the same compound, the TGI is 97.5 µM in the experiment with OVCAR-8 ovarian, 82.9 µM in the experiment with RXF 393 renal, more than 100 µM in the experiment on SK-MEL-28 melanoma and 69.4 µM in the experiment on SNB-75 CNS.
With `CS(=O)(=O)c1ccc(C(F)(F)F)cc1NC(=O)Nc1cnc(Oc2ccc(-c3cc(Cl)cnc3N)cc2)nc1`, the GI50 in the experiment with 786-0 renal is 2.4 µM; in the experiment on CCRF-CEM leukemia it was 3.22 µM; in the experiment with MALME-3M melanoma it was 2.05 µM; in the experiment with MOLT-4 leukemia, 2.12 µM; in the experiment on OVCAR-4 ovarian, 2.9 µM; with OVCAR-5 ovarian, 3.1 µM. Further, the GI50 in the experiment with OVCAR-8 ovarian is 2.86 µM; in the experiment with RXF 393 renal, 1.79 µM; in the experiment on SK-MEL-28 melanoma it was 2.21 µM; with SNB-75 CNS it was 1.11 µM. Besides, the TGI in the experiment on 786-0 renal is 7 µM; in the experiment with CCRF-CEM leukemia it was more than 100 µM; in the experiment on MALME-3M melanoma it was 5.29 µM; in the experiment with MOLT-4 leukemia, 6.53 µM; in the experiment on OVCAR-4 ovarian it was 12.4 µM; in the experiment on OVCAR-5 ovarian it was 15.9 µM. For the same compound, the TGI is more than 29 µM in the experiment on OVCAR-8 ovarian, 4.61 µM with RXF 393 renal, 5.62 µM in the experiment on SK-MEL-28 melanoma and 11.5 µM in the experiment on SNB-75 CNS.
As to `N#Cc1ccc(-n2cnc(NC(=O)[C@H]3CCN(C#N)C3)c2)cc1`, the GI50 in the experiment on 786-0 renal is 2.42 µM; in the experiment with CCRF-CEM leukemia, 1.03 µM; with MALME-3M melanoma, 0.312 µM; in the experiment with MOLT-4 leukemia, 2.15 µM; in the experiment on OVCAR-4 ovarian it was 1.86 µM; with OVCAR-5 ovarian it was 3.3 µM. Moreover, the GI50 in the experiment with OVCAR-8 ovarian is 1.92 µM; in the experiment on RXF 393 renal it was 0.374 µM; in the experiment on SK-MEL-28 melanoma it was 2.64 µM; in the experiment on SNB-75 CNS it was 0.519 µM. Further, the TGI in the experiment on 786-0 renal was 9.11 µM; in the experiment with CCRF-CEM leukemia, more than 100 µM; with MALME-3M melanoma, 6.58 µM; in the experiment on MOLT-4 leukemia, more than 29.8 µM; in the experiment on OVCAR-4 ovarian, 12.5 µM; in the experiment with OVCAR-5 ovarian it was more than 100 µM. Besides, the TGI in the experiment with OVCAR-8 ovarian is more than 100 µM; in the experiment on RXF 393 renal, 2.6 µM; in the experiment with SK-MEL-28 melanoma, more than 100 µM; with SNB-75 CNS, 3.74 µM.
Consider `CC(=O)O[C@H]1CCC2[C@@H]3CCC4C(=O)c5oncc5C[C@]4(C)C3CC[C@@]21C` (stereo not given in full), for which the TGI with 786-0 renal, with CCRF-CEM leukemia, in the experiment on MALME-3M melanoma, in the experiment on MOLT-4 leukemia, with OVCAR-4 ovarian and in the experiment on OVCAR-5 ovarian was more than 100 µM in each case. The TGI in the experiment with OVCAR-8 ovarian, in the experiment with RXF 393 renal, in the experiment on SK-MEL-28 melanoma and with SNB-75 CNS was more than 100 µM in each case.
For the compound `Cc1cc(N2CCN(C)CC2)nc(NC2CCCC(Nc3ccnc4cc(Cl)ccc34)C2)n1` (stereo not given), the GI50 is 1.81 µM in the experiment on 786-0 renal; 1.78 µM in the experiment on CCRF-CEM leukemia; 1.82 µM with MALME-3M melanoma; 1.77 µM in the experiment with MOLT-4 leukemia; 1.9 µM with OVCAR-4 ovarian; 2.88 µM with OVCAR-5 ovarian. Moreover, the GI50 in the experiment with OVCAR-8 ovarian is 3.75 µM; in the experiment with RXF 393 renal, 1.42 µM; in the experiment on SK-MEL-28 melanoma, 1.8 µM; with SNB-75 CNS, 1.65 µM. In addition, the TGI came out at 4.15 µM with 786-0 renal; 7.34 µM in the experiment with CCRF-CEM leukemia; 3.45 µM with MALME-3M melanoma; 7.59 µM with MOLT-4 leukemia; 6.24 µM in the experiment with OVCAR-4 ovarian; 9.88 µM with OVCAR-5 ovarian. The TGI in the experiment with OVCAR-8 ovarian was determined as 15.5 µM; in the experiment with RXF 393 renal it was 3.17 µM; in the experiment with SK-MEL-28 melanoma it was 3.7 µM; with SNB-75 CNS, 5 µM.
For `CNC(=O)OCc1nc(S(C)=O)n(C)c1COC(=O)NC` (stereo not given), the TGI is more than 100 µM in the experiment with 786-0 renal; more than 100 µM in the experiment on CCRF-CEM leukemia; more than 100 µM in the experiment with MALME-3M melanoma; more than 100 µM in the experiment on MOLT-4 leukemia; more than 71.6 µM in the experiment on OVCAR-4 ovarian; more than 100 µM with OVCAR-5 ovarian. The TGI in the experiment on OVCAR-8 ovarian, in the experiment with RXF 393 renal, with SK-MEL-28 melanoma and in the experiment with SNB-75 CNS was more than 100 µM each time.
As to `CSc1s[s+]c(SC)c1[O-]`, the TGI with 786-0 renal is 30.3 µM; in the experiment with CCRF-CEM leukemia it was more than 100 µM; with MALME-3M melanoma, 40.6 µM; in the experiment on MOLT-4 leukemia, 48.2 µM; with OVCAR-4 ovarian it was more than 100 µM; with OVCAR-5 ovarian, more than 100 µM. In addition, the TGI was 43.7 µM in the experiment with OVCAR-8 ovarian, 41.4 µM with RXF 393 renal, 34.2 µM in the experiment on SK-MEL-28 melanoma and more than 100 µM in the experiment with SNB-75 CNS.

Values taken from PubChem BioAssay (NCI).
